“Also recorded” adds a separate entry of the source.

Data on three compounds can be found in patent publication US10363235B2, “Compositions comprising 15-HEPE and methods of treating or preventing fibrosis using same” (Afimmune Limited, priority 2014, dated 2019).

The subject of one series is mouse model of NAFLD. Nature of the series: mouse model of NAFLD (streptozotocin plus high-fat diet), Example 1. Type of series: in vivo, mice (C57/BL6). To be noted: for fibrosis (histology, sirius red staining): compared to vehicle, FIGS. 7A-7D; for NAFLD Activity Score (NAS): FIGS. 8A-D. As to the method: The purpose of this study was to examine the effects of 15-HEPE and 15-HETrE compared to vehicle and to telmisartan in a mouse model of NAFLD.
C57/BL6 mice obtained from Charles River Laboratories were divided into 6 study groups as follows:
Group 1 (Vehicle): Twelve mice were each administered a single dose of steptozotocin after birth and fed a high-fat diet for four weeks. The mice were then fed vehicle in a volume of 10 mL/kg once daily from 5 to 12 weeks of age.
Group 2 (telmisartan): Twelve mice were each administered a single dose of steptozotocin after birth and fed a high-fat diet for four weeks. The mice were then fed telmisartan in an amount of 5 mg/kg once daily from 5 to 12 weeks of age.
Group 3 (15-HEPE, low dose): Twelve mice were each administered a single dose of steptozotocin after birth and fed a high-fat diet for four weeks. The mice were then fed 15-HEPE in an amount of 50 mg/kg once daily from 5 to 12 weeks of age.
Group 4 (15-HEPE, high dose): Twelve mice were each administered a single dose of steptozotocin after birth and fed a high-fat diet for four weeks. The mice were then fed 15-HEPE in an amount of 500 mg/kg once daily from 5 to 12 weeks of age.
Group 5 (15-HETrE, low dose): Twelve mice were each administered a single dose of steptozotocin after birth and fed a high-fat diet for four weeks. The mice were then fed 15-HETrE in an amount of 10 mg/kg once daily from 5 to 12 weeks of age.
Group 6 (15-HETrE, high dose): Twelve mice were administered a single dose of steptozotocin after birth and fed a high-fat diet for four weeks. The mice were then fed 15-HETrE in an amount of 100 mg/kg once daily from 5 to 12 weeks of age.
At 12 weeks of age, all mice were assessed for changes in: • serum biochemistry (e.g., ALT levels, LDL levels, VLDL levels, HDL levels, triglyceride levels, total cholesterol level), • fibrosis (e.g., histology using sirius red staining), and • NAFLD activity score (including, e.g., H&E staining histology). Results

The test system of series [1] is mouse model of non-alcoholic steatohepatitis (NASH). Nature of the series: NASH mouse model (streptozotocin plus high fat diet), liver fibrosis, Example 2. Conditions: 500 mg/kg orally once daily from 5 to 9 weeks of age; compared with EPA (500 mg/kg) or vehicle; FIG. 9. Type of series: in vivo, mice. As to the method: Non-alcoholic steatohepatitis (NASH) was induced in mice by a single subcutaneous injection of 200 μg of streptozotocin (Sigma Aldrich) two days after birth and feeding with high fat diet (57 kcal % fat, CLEA Japan) after 4 weeks of age. After randomization, each mouse was orally administered vehicle, telmisartan (10 mg/kg), 15-HEPE (500 mg/kg) or EPA (500 mg/kg) once daily from 5 to 9 weeks of age. At the end of the 9th week, the mice were sacrificed and analyzed.

For series [2], the system named is Lung Fibroblasts from Idiopathic Pulmonary Fibrosis (IPF) patients. Nature of the series: cytotoxicity in IPF lung fibroblasts. Type of series: cell-based, human. Conditions: treatment for 48 hours.
For series [3] the test system is unchanged. Nature of the series: TGF-beta induced alpha-SMA production in IPF lung fibroblasts. Type of series: cell-based, human. To be noted: 100 ug/ml; 2 hours pretreatment, then TGF beta (20 ng/ml) for 48 hours; FIG. 10. Here is the method: Lung Fibroblasts from Idiopathic Pulmonary Fibrosis (IPF) patients were plated at 10000 cells per well in their respective growth mediums and allowed to attach overnight. After attachment, the cells were pretreated with 15(S)-HEPE for 2 hours in their respective assay mediums. After 2 hours, the cells were then treated with compounds+/−TGF beta (20 ng/ml) for 48 hours. After 48 hours, the conditioned media was collected and frozen at −80° C. for future collagen analysis. After collection, the cells were stained for SMA I expression. The collagen ELISA was performed according to the manufacturer's instructions.

The nature of series [4]: 15-HEPE levels in tissues of dosed rats. It is filed as in vivo. To be noted: 500 mg/kg for 7 days, treated vs untreated control, FIG. 11. Here is the method:
Rats (n=5) were dosed with 15-HEPE (DS102) 500 mg/kg for 7 days and organs excised to analyse 15-HEPE levels in the tissues of treated vs untreated animals.

The mark [5] stands for this setting: telmisartan 5 mg/kg once daily from 5 to 12 weeks of age, vs vehicle.

Regarding `CCCCCC(O)/C=C/C=C\C/C=C\CCCCCCC(=O)O` (stereo not shown) [15-HETrE, 15-hydroxyeicosa-8(Z),11(Z),13(E)-trienoic acid], in the series with mouse model of NAFLD (low-dose 15-HETrE 10 mg/kg once daily from 5 to 12 weeks of age, vs vehicle (Mann Whitney), FIG. 1), the serum triglycerides entry is recorded as “significantly lower”. Besides, the VLDL levels result in the series on mouse model of NAFLD (low-dose 15-HETrE 10 mg/kg once daily from 5 to 12 weeks of age, vs vehicle, FIG. 2) was “significantly lower”. In addition, the LDL levels result in the series on mouse model of NAFLD (low-dose 15-HETrE 10 mg/kg once daily from 5 to 12 weeks of age, vs vehicle, FIG. 3) is listed as “significantly lower”. In addition, the Total cholesterol levels result in the series on mouse model of NAFLD (low-dose 15-HETrE 10 mg/kg once daily from 5 to 12 weeks of age, vs vehicle, FIG. 4) was “significantly lower”.
For `CCCc1nc2c(C)cc(-c3nc4ccccc4n3C)cc2n1Cc1ccc(-c2ccccc2C(=O)O)cc1` [telmisartan, 2-(4-{[4-Methyl-6-(1-methyl-1H-1,3-benzodiazol-2-yl)-2-propyl-1H-1,3-benzodiazol-1-yl]methyl}phenyl)benzoic acid], the “fibrosis (histology, sirius red staining)” value with mouse model of NAFLD (telmisartan 5 mg/kg once daily from 5 to 12 weeks of age) is “low amount of fibrosis”. For the same compound, in the series on mouse model of NAFLD (setting [5]), the Hydroxyproline levels entry was “did not show statistically significant reductions”, the LDL levels entry was “did not show statistically significant reductions”, the Total cholesterol levels result was “did not show statistically significant reductions” and the VLDL levels entry is “did not show statistically significant reductions”. In addition, in the series on mouse model of NAFLD (setting [5]), the “plasma ALT levels” value is reported as “did not show statistically significant reductions” and the serum triglycerides entry is on record as “did not show statistically significant reductions”. In addition, the “NAFLD Activity Score (NAS)” value in the series on mouse model of NAFLD (telmisartan 5 mg/kg once daily from 5 to 12 weeks of age, vs vehicle, p<0.001) is recorded as “significantly lower”.
Consider `CCC=CCC(O)C=CC=CCC=CCC=CCCCC(=O)O` (stereo not shown) [15-HEPE, 15-Hydroxy-eicosa-5,8,11,13,17-pentaenoic acid], for which the “treating and/or preventing liver fibrosis” value in series [1] is reported as “more effective”. For the same compound, the cytotoxicity entry in series [2] is recorded as “No cytotoxicity”. Moreover, the “fibrosis (histology, sirius red staining)” value in the series on mouse model of NAFLD (high-dose 15-HEPE 500 mg/kg once daily from 5 to 12 weeks of age, equivalent to telmisartan) was “statistically equivalent low amount of fibrosis”. The “plasma ALT levels” value in the series with mouse model of NAFLD (high-dose 15-HEPE 500 mg/kg once daily from 5 to 12 weeks of age, vs high-dose 15-HETrE group (100 mg/kg), FIG. 6) is reported as “significantly lower”. In the series with mouse model of NAFLD (high-dose 15-HEPE 500 mg/kg once daily from 5 to 12 weeks of age, vs placebo (vehicle), p<0.01), the “NAFLD Activity Score (NAS)” value is reported as “significantly lower”. Moreover, the “plasma ALT levels” value in the series on mouse model of NAFLD (high-dose 15-HEPE 500 mg/kg once daily from 5 to 12 weeks of age, vs vehicle, FIG. 6) is on record as “significantly lower”. Also, the Total cholesterol levels result in the series with mouse model of NAFLD (low-dose 15-HEPE 50 mg/kg once daily from 5 to 12 weeks of age, vs vehicle, FIG. 4) is reported as “significantly lower”. Besides, the “TGF-beta induced alpha-SMA production” value in series [3] was “inhibited; also recorded: inhibition”. Further, in series [4], the “15-HEPE level in the liver” value is recorded as “significantly more” and the “15-HEPE level in the lung” value is on record as “significantly more”.
